From US20160081974A1, “COMPOSITION FOR PREVENTING OR TREATING EDEMA CONTAINING FLAVONOID COMPOUND” (Research & Business Foundation SUNGKYUNKWAN UNIVERSITY, priority 2014, published 2016)

Columns and labels:
[1] = system: lymphedema-induced mouse; assay: Lymphedema size after daily injection into the edema site of lymphedema-induced mice (caliper, thigh cross-sectional area); type: in vivo; conditions: measured every day, compared to control group
Procedure: (§1) As mice, Outbred Mice ICR originating from Charles River Laboratories (Wilmington, Mass.) were used. 3 μl of 2% methylene blue as a staining dye for staining lymph nodes and lymphatic vessels was injected into the top of a right foot. After the injection, the right foot was massaged for about 3 minutes to allow a flow of the staining dye through lymphatic vessels to stain the lymphatic system. Zoletil50 (0.6 mg/kg) and Rompun (0.4 mg/kg), which are commercially provided by Bayer Korea, were administered as anesthetic drugs at the maximum content of 100 μl by intraperitoneal injection.
Specifically, a mouse was anesthetized with the anesthetic drugs (Zoletil50, Rompun), and its chest was shaved to facilitate a surgical operation and suturing, and observation. A small amount (3 μl) of a 2% methylene blue solution was injected into the top of the right foot, and then the injected site was massaged for 3 minutes to allow the staining dye to spread well through the lymphatic vessels. […]
Each of PBS, hyaluronidase and butein was administered into an edema site of the mouse prepared in Example 1 at 15 mg per kg a day, and the size of edema was measured each day.
The cross-sectional area of lymphedema was calculated from the width and length of the thigh and recorded, and thus a change in size of lymphedema during observation was found.
Each of PBS, hyaluronidase and sulfuretin (15 mg/kg/day) was injected into an edema site of the mouse prepared in Example 1, and the size of edema was measured every day.
FIG. 8 illustrates the inhibition of lymphedema by sulfuretin, and the size measurement was performed on a thigh area present between the knee and the trunk of the lymphedema-induced site of the experimental animal using a caliper. The cross-sectional area of lymphedema was calculated from the width and length of the thigh and recorded, and thus a change in the lymphedema size that occurs in observation was found.
Each of PBS, hyaluronidase and isoflavone (100 mg/kg/day) was injected into an edema site of the mouse prepared in Example 1, and the size of edema was measured every day. […]

[2] = system: aP2 mRNA; assay: aP2 mRNA in lymphedema tissue by real time PCR; type: in vivo, mouse
Procedure: as §1
Specifically, a mouse was anesthetized with the anesthetic drugs (Zoletil50, Rompun), and its chest was shaved to facilitate a surgical operation and suturing, and observation. A small amount (3 μl) of a 2% methylene blue solution was injected into the top of the right foot, and then the injected site was massaged for 3 minutes to allow the staining dye to spread well through the lymphatic vessels. To minimize inflammation which may be caused when lymph nodes in a groin region were excised and lymphatic vessels in a thigh were blocked, a minimum area of the right groin was incised open. […]
(§2) In this example, to investigate a mechanism for inducing reduction in lymphedema, expression of an adipocyte-related marker greatly found in edema was examined. […] An edema tissue was collected, and mRNAs of adipocyte markers such as PPAR-γ and aP2 that are greatly found in edema were quantitatively analyzed by real time PCR, the result of which is shown in FIG. […]
In this example, to investigate a mechanism for inducing reduction in lymphedema, expression of an adipocyte-related marker easily found in edema was examined. […] An edema tissue was collected, and mRNAs of adipocyte markers such as PPAR-γ and aP2, which are greatly found in edema, were quantitatively analyzed by real time PCR, and the result is shown in FIG. […]

[3] = system: lymphedema-induced mouse; assay: Lymphedema reduction after subcutaneous injection for 5 days (leg images); type: in vivo; conditions: compared to control group
Procedure: as §1
Specifically, a mouse was anesthetized with the anesthetic drugs (Zoletil50, Rompun), and its chest was shaved to facilitate a surgical operation and suturing, and observation. A small amount (3 μl) of a 2% methylene blue solution was injected into the top of the right foot, and then the injected site was massaged for 3 minutes to allow the staining dye to spread well through the lymphatic vessels. To minimize inflammation which may be caused when lymph nodes in a groin region were excised and lymphatic vessels in a thigh were blocked, a minimum area of the right groin was incised open. Afterward, a superficial inguinal node and popliteal node, and a deep inguinal node, which were stained with methylene blue, were sequentially removed, and the stained lymphatic vessels in the right thigh were blocked using a soldering iron. Since 70 to 80% of the total lymphatic vessels were present in a subcutaneous region, the subcutaneous region in a suturing site was seared with the soldering iron to completely block the lymphatic system under the suturing site, and the right thigh was finally closed by suturing. About 3 days later, an increase in edema was confirmed.
Butein (15 mg/kg/day) was administered into an animal in which lymphedema was induced by lymph excision in Example 1 by subcutaneous injection for 5 days, and the result is shown in FIG. 3. […]

[4] = system: PPAR-γ mRNA; assay: PPAR-γ mRNA in lymphedema tissue by real time PCR; type: in vivo, mouse
Procedure: as §1
Specifically, a mouse was anesthetized with the anesthetic drugs (Zoletil50, Rompun), and its chest was shaved to facilitate a surgical operation and suturing, and observation. […]
as §2, with “FIG. 2 (normal control: control group in which edema was not induced (n=3), edema+PBS: group into which PBS was injected after edema induction (n=4), edema+butein: group into which butein was injected after edema induction (15 mg/kg/day) (n=5)).” for “FIG.”

[5] = system: lipedema-induced mouse; assay: Lipedema size after injection into the edema site of lipedema-induced mice (caliper, thigh cross-sectional area); type: in vivo; conditions: 15 mg/kg/day injected into edema site, measured every day, versus untreated experimental group
Procedure: (§3) Lymph nodes were removed from a mouse leg by a similar method to the method described in Example 1 to induce lipedema in the experimental animal, and an increase in edema was confirmed about 3 days after the removal of the lymph nodes.
PBS (control) or butein (15 mg/kg/day) was injected into an edema site of the lipedema-induced mouse prepared in Example 5, and the edema size was measured every day.
A thigh area present between the knee and the trunk of the lipedema-induced site of the experimental animal was measured using a caliper. The cross-sectional area of lipedema was calculated from the width and length of the thigh and recorded, and thus a change in size of lipedema during observation was found.

[6] = system: PPAR-γ mRNA; assay: PPAR-γ mRNA in lipedema tissue; type: in vivo, mouse; conditions: butein injected for 14 days
Procedure: as §3
(§4) In this example, to investigate a mechanism for inducing the reduction of lipedema, expression of an adipocyte-related marker that is easily found in lipedema was examined. An edema tissue was isolated after butein was injected into lipedema for 14 days, and mRNAs of adipocyte markers, PPAR-γ and aP2, isolated from total RNA were quantified, and the result is shown in FIG. 7. Referring to FIG. 7, it could be confirmed that butein reduced the expression of PPAR-γ and aP2. Therefore, it can be seen that the inhibition of adipocytes by the butein administration has an influence on lipedema reduction.

[7] = system: aP2 mRNA; assay: aP2 mRNA in lipedema tissue; type: in vivo, mouse; conditions: butein injected for 14 days
Procedure: as §3, §4

[8] = 15 mg/kg/day injected into edema site
[9] = 15 mg/kg/day subcutaneous injection for 5 days

## O=C1/C(=C/c2ccc(O)c(O)c2)Oc2cc(O)ccc21 [sulfuretin]
[1]; [8]
  size of lymphedema: significantly reduced
[2]; 15 mg/kg/day for 14 days
  mRNA expression of aP2 in edema tissue: inhibits
[3]; [9]
  size of lymphedema: significantly reduced

## O=C(/C=C/c1ccc(O)c(O)c1)c1ccc(O)cc1O [butein]
[1]; [8]
  size of lymphedema: significantly reduced
[4]; 15 mg/kg/day for 14 days
  mRNA expression of PPAR-γ in edema tissue: inhibits
[2]; 15 mg/kg/day for 14 days
  mRNA expression of aP2 in edema tissue: inhibits
[3]; [9]
  size of lymphedema: significantly reduced
[5]
  edema size (lipedema): more rapidly and greatly reduced
[6]
  mRNA expression of PPAR-γ in edema tissue: reduced
[7]
  mRNA expression of aP2 in edema tissue: reduced

## O=c1c(-c2ccccc2)coc2ccccc12 [isoflavone]
[1]; 100 mg/kg/day injected into edema site
  size of lymphedema: significantly reduced
[4]; 100 mg/kg/day for 14 days
  mRNA expression of PPAR-γ in edema tissue: inhibits
[2]; 100 mg/kg/day for 14 days
  mRNA expression of aP2 in edema tissue: inhibits
[3]; 100 mg/kg/day subcutaneous injection for 5 days
  size of lymphedema: significantly reduced
